# Target: T1, rat mGluR5 (Rattus norvegicus, UniProt P31424)
# Assay: not given
# Details: read-out: mGluR5, IC50 rat; HEK cells expressing rat mGluR5
# T1 sequence (P31424 21-1203): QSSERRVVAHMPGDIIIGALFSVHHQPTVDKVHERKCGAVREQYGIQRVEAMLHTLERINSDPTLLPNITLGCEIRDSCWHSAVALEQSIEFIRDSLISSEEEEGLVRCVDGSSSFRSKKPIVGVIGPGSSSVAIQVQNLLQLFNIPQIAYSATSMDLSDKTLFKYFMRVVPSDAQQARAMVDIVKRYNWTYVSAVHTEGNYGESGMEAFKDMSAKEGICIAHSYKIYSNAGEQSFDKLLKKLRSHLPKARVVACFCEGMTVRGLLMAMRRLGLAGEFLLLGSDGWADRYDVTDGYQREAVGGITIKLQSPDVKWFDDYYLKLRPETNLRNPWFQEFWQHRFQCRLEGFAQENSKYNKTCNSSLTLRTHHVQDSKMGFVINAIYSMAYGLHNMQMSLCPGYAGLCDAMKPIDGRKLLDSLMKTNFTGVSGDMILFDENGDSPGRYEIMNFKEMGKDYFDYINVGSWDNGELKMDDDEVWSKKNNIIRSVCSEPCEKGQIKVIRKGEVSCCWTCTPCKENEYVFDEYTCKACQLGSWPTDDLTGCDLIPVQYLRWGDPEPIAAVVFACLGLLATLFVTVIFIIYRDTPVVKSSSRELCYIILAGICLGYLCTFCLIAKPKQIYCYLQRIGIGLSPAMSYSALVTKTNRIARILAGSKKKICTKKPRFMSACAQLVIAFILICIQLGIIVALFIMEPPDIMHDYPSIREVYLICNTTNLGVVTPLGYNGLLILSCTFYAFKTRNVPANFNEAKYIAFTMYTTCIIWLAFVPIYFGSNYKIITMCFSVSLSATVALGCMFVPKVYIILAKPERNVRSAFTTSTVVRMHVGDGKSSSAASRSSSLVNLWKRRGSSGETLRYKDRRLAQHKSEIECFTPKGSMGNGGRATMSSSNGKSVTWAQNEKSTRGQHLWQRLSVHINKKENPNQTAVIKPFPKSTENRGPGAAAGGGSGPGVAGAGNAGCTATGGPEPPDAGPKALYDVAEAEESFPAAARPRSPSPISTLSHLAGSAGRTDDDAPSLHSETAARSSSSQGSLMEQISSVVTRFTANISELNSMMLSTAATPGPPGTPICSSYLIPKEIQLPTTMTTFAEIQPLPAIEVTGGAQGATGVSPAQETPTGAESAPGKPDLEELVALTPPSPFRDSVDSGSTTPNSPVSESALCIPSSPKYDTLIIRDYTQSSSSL
row,IC50,SMILES
1,61 ± 15 nM,N#Cc1cccc(C(=O)Nc2cc(F)cc(Oc3cncnc3)c2)c1 [drawing 665]

# Target: T1, rat mGluR5
# Assay: cell-based
# Details: not given
row,IC50,SMILES
1,> 10000 nM,CN(c1cncc(Cl)c1)c1cccc(NC(=O)c2cccc(Cl)c2)c1
2,311 nM,COc1cccc(C(=O)Nc2cc(F)cc(Oc3cncnc3)c2)c1
3,3530 nM,O=C(Nc1cccc(Oc2cccnc2)c1)c1cccc(F)n1
4,63 ± 9 nM,N#Cc1cccc(C(=O)Nc2cc(Cl)cc(Oc3cncnc3)c2)c1
5,16 nM,N#Cc1cc(NC(=O)c2cc(Cl)ccn2)cc(Oc2cncnc2)c1
6,14 nM,CN(c1cncnc1)c1cc(NC(=O)c2cccc(Br)c2)ccc1F
7,208 nM,CCN(c1cccnc1)c1cccc(NC(=O)c2cccc(Br)c2)c1
8,> 10000 nM,O=C(Nc1cccc(Oc2cccnc2)c1)c1cccc(Cl)c1F
9,28 nM,CN(c1cncnc1)c1cc(NC(=O)c2cccc(F)c2)cc(F)c1F
10,1600 nM,O=C(Nc1cccc(Oc2cccnc2)c1)c1nccs1
11,84 nM,[2H]C([2H])([2H])N(c1cncnc1)c1cc(NC(=O)c2cccc(C#N)c2)ccc1Cl
12,2230 nM,Cc1ncccc1Oc1cccc(NC(=O)c2cccc(Cl)c2)c1
13,5990 nM,O=C(Nc1cccc(Oc2cccnc2)c1)c1cccc(C(F)(F)F)c1
14,8340 nM,COc1cccc(C(=O)Nc2cccc(Oc3cccnc3)c2)n1
15,5420 nM,O=C(Nc1cc(F)c(F)c(Oc2cncnc2)c1)c1ccc(F)cn1
16,656 nM,CCN(c1cccnc1)c1cc(F)cc(NC(=O)c2cccc(Br)c2)c1
17,75 ± 13 nM,O=C(Nc1cccc(Oc2cncnc2)c1)c1cccc(Cl)c1
18,1690 nM,O=C(Nc1cc(F)c(F)c(Oc2cncnc2)c1)c1cc(F)ccn1
19,83 nM,CN(c1cccnc1)c1cccc(NC(=O)c2cccc(Br)c2)c1
20,51 nM,CN(c1cncnc1)c1cc(NC(=O)c2cccc(C#N)c2)ccc1F
21,53 nM,O=C(Nc1cccc(Oc2cncnc2)c1)c1cccc(Br)c1
22,230 nM,CC(C)Oc1ccnc(C(=O)Nc2cc(F)cc(Oc3cncnc3)c2)c1
23,87 nM,N#Cc1ccc(F)c(C(=O)Nc2cc(F)cc(Oc3cncnc3)c2)c1
24,443 nM,N#Cc1cc(NC(=O)c2cccc(C#N)c2)cc(Oc2cncnc2)c1
25,6250 nM,O=C(Nc1cccc(Oc2cccnc2)c1)c1ccc(F)c(Cl)c1

# Second part, the compound before the results:
row,SMILES,IC50
1,Cc1ccc(Oc2cc(Cl)cc(NC(=O)c3cccc(Cl)c3)c2)cn1,> 10000 nM
2,CN(c1cncnc1)c1cc(NC(=O)c2cccc(F)c2)ccc1Cl,16 nM
3,CCN(c1cccnc1)c1cc(F)cc(NC(=O)c2cccc(Cl)c2)c1,388 nM
4,N#Cc1cccc(C(=O)Nc2cccc(Oc3cccnc3)c2)c1,536 nM
5,CN(c1cncc(Cl)c1)c1cccc(NC(=O)c2cccc(C#N)c2)c1,> 10000 nM
6,COc1ccnc(C(=O)Nc2cc(C#N)cc(Oc3cncnc3)c2)c1,63 nM
7,CCN(c1cccnc1)c1cccc(NC(=O)c2cccc(C#N)c2)c1,120 nM
8,CN(c1cncnc1)c1cc(Cl)cc(NC(=O)c2cccc(Cl)c2)c1,138 nM
9,CCN(c1cccnc1)c1cccc(NC(=O)c2cccc(Cl)c2)c1,111 ± 21 nM
10,CN(c1cncnc1)c1cc(NC(=O)c2cccc(Br)c2)ccc1Cl,36 nM
11,Cc1nc(C(=O)Nc2cccc(Oc3cccnc3)c2)cs1,4210 nM
12,CCN(c1cncnc1)c1cccc(NC(=O)c2cccc(C#N)c2)c1,43 nM
13,O=C(Nc1cccc(Oc2cncc(F)c2)c1)c1cccc(Br)c1,124 nM
14,N#Cc1cccc(C(=O)Nc2cccc(Oc3cncnc3)c2)c1,580 nM
15,N#Cc1cccc(C(=O)Nc2cccc(Oc3cncc(Cl)c3)c2)c1,155 nM
16,CC(C)CN(c1cncnc1)c1cc(NC(=O)c2cccc(Cl)c2)ccc1Cl,> 10000 nM
17,N#Cc1cccc(C(=O)Nc2cc(F)cc(Oc3cncnc3)c2)c1 [drawing 550],61 ± 15 nM
18,N#Cc1cc(C(=O)Nc2cc(F)cc(Oc3cncnc3)c2)ccc1F,1640 nM
19,CN(c1cncnc1)c1cccc(NC(=O)c2cccc(F)c2)c1,21 ± 4 nM
20,CN(c1cncnc1)c1cc(NC(=O)c2cccc(F)n2)ccc1F,8.6 nM
21,CN(c1cncnc1)c1cc(NC(=O)c2cccc(O)n2)ccc1F,2910 nM

row,SMILES,IC50
1,CN(c1cncnc1)c1cccc(NC(=O)c2cccc(C(F)(F)F)n2)c1,34 ± 7 nM
2,Cc1csc(C(=O)Nc2cccc(Oc3cccnc3)c2)n1,465 nM
3,O=C(Nc1cc(Cl)cc(Oc2cncc(F)c2)c1)c1cccc(Cl)n1,5370 nM
4,CN(c1cncnc1)c1cc(NC(=O)c2cscn2)cc(F)c1F,80 nM
5,CN(c1cncnc1)c1ccc(F)c(NC(=O)c2cccc(Cl)c2)c1,80 nM
6,CN(c1cccnc1)c1cccc(NC(=O)c2cccc(Cl)c2)c1,31 ± 5 nM
7,CN(c1cncnc1)c1cccc(NC(=O)c2cccc(C#N)c2)c1,84 ± 14 nM
8,COc1cccc(C(=O)Nc2cccc(N(C)c3cncnc3)c2)c1,108 ± 32 nM
9,CN(c1cncnc1)c1cc(NC(=O)c2cccc(F)c2)ccc1F,9.8 nM
10,O=C(Nc1cc(Oc2cccnc2)cc(C(F)(F)F)c1)c1cccc(Cl)c1,> 30000 nM
11,O=C(Nc1cc(F)cc(Oc2cncnc2)c1)c1cccc(F)n1,2560 nM
12,CCCN(c1cccnc1)c1cccc(NC(=O)c2cccc(Cl)c2)c1,5490 nM
13,N#Cc1cc(NC(=O)c2cc(Br)ccn2)cc(Oc2cncnc2)c1,17 nM
14,CN(c1cncnc1)c1cc(NC(=O)c2cccc(C#N)c2)ccc1Cl,59 nM
15,CN(c1cncnc1)c1cc(NC(=O)c2cccc(C#N)c2)cc(F)c1F,148 nM
16,CN(c1cncnc1)c1cc(F)cc(NC(=O)c2cccc(F)c2)c1,127 nM
17,O=C(Nc1cc(F)cc(Oc2cncnc2)c1)c1cccc(OC(F)(F)F)c1,417 nM
18,Cc1cccc(C(=O)Nc2cccc(Oc3cccnc3)c2)c1,286 nM
19,O=C(Nc1cc(F)cc(Oc2cncnc2)c1)c1cccc(F)c1,288 nM
20,Cc1cccc(C(=O)Nc2cc(Cl)cc(Oc3ccc(C)nc3)c2)c1,6870 nM
21,O=C(Nc1cccc(Oc2cccnc2)c1)c1cscn1,1270 nM

# Target: human mGluR5 (Homo sapiens, UniProt P41594)
# Sequence (P41594 21-1212): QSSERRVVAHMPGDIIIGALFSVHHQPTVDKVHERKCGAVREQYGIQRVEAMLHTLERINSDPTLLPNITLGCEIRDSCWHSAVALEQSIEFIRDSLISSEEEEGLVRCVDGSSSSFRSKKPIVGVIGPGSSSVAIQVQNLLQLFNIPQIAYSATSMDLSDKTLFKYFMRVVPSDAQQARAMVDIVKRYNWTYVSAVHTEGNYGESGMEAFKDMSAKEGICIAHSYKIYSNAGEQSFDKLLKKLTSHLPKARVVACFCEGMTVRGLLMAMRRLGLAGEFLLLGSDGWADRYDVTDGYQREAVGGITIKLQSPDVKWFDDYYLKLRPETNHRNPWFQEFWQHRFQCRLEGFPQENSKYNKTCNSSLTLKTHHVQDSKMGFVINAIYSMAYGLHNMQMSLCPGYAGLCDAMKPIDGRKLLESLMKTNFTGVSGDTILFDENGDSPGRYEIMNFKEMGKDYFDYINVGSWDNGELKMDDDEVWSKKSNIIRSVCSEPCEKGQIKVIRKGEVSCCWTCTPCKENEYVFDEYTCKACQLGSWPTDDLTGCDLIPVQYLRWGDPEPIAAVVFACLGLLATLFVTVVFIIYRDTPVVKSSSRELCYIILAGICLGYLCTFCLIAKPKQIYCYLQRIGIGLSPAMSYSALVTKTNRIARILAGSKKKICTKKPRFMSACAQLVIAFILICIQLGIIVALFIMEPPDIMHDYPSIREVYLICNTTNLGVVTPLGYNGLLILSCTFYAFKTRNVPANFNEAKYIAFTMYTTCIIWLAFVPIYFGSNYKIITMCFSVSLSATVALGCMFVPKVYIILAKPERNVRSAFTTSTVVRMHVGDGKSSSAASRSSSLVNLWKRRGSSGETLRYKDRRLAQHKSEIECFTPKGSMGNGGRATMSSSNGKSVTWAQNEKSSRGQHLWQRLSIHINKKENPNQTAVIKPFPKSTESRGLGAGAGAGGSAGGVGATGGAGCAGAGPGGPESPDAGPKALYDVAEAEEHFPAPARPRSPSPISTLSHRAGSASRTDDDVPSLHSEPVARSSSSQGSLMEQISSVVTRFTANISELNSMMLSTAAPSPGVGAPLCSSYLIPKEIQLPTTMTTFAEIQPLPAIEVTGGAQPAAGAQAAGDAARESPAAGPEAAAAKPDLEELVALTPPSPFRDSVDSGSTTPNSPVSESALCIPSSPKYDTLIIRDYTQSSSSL
# Assay: cell-based
# Details: not given
row,IC50,SMILES
1,30 nM,O=C(Nc1cc(Cl)cc(Oc2cncnc2)c1)c1cccc(Cl)c1
2,11 nM,CN(c1cncnc1)c1cc(NC(=O)c2cccc(Cl)c2)ccc1F

# The remaining lines, values behind:
row,SMILES,IC50
1,N#Cc1cccc(C(=O)Nc2cc(F)cc(Oc3cncnc3)c2)c1 [drawing 665],60 nM
2,N#Cc1cc(NC(=O)c2cccc(Br)c2)cc(Oc2cncnc2)c1,94 nM
3,N#Cc1cccc(C(=O)Nc2cccc(Oc3cncc(F)c3)c2)c1,249 nM

# Source: patent US8501757B2, “Substituted phenylamine carboxamide analogs as mGluR5 negative allosteric modulators and methods of making and using the same” (priority 2009, dated 2013)
